From patent US20200361895A1, “NOVEL SULFONAMIDE CARBOXAMIDE COMPOUNDS” (Inflazome Limited, priority 2017, published 2020) come the findings set out here.

Structures are written as SMILES. Counter-ions that a name gives are not always drawn.

Assay [1] has as its target T1, NLRP3 (Homo sapiens, UniProt Q96P20). Nature of the assay: THP-1 cells pyroptosis assay (LPS + nigericin, resazurin readout; THP IC50). Also on record: Seed THP-1 cells (25,000 cells/well) containing 1.0 μg/ml LPS in 40 μl of RPMI medium; host or cells: THP-1 cells. It is filed as cell-based. The method, boiled down:
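IC50 from 4-parameter fit of resazurin fluorescence (100 μM, 1-2 hrs), reflecting surviving cells after pyroptosis. LPS-primed (1 μg/ml) THP-1 cells in FBS-free RPMI got compound for 3 hrs at 37° C (top 10 μM, half-log, 8 points), then nigericin 5 μM for 1 hr.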

Assay [2] concerns the target T1, NLRP3. Nature of the assay: Human whole blood IL1β release assay (LPS + nigericin, AlphaLisa IL-1β; HWB IC50). Type of assay: cell-based. On the set-up: Human whole blood in Li-heparin tubes was obtained from healthy donors from a volunteer donor panel; from tissue; host or cells: human whole blood from healthy donors. Particulars: IL-1β release. The method, boiled down:
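IL-1β in plasma supernatant quantified by AlphaLisa after nigericin (10 μM final, 1 h, 37 °C) triggering of human whole blood that had been preincubated 3 h with LPS (1 μg/ml) plus compound (half-log, 8 points, from 10 μM). IC50 by variable-slope four-parameter regression.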
A general note: In Alpha technology, singlet oxygen from a donor bead excites a nearby acceptor bead.

T1 sequence (Q96P20 whole entry): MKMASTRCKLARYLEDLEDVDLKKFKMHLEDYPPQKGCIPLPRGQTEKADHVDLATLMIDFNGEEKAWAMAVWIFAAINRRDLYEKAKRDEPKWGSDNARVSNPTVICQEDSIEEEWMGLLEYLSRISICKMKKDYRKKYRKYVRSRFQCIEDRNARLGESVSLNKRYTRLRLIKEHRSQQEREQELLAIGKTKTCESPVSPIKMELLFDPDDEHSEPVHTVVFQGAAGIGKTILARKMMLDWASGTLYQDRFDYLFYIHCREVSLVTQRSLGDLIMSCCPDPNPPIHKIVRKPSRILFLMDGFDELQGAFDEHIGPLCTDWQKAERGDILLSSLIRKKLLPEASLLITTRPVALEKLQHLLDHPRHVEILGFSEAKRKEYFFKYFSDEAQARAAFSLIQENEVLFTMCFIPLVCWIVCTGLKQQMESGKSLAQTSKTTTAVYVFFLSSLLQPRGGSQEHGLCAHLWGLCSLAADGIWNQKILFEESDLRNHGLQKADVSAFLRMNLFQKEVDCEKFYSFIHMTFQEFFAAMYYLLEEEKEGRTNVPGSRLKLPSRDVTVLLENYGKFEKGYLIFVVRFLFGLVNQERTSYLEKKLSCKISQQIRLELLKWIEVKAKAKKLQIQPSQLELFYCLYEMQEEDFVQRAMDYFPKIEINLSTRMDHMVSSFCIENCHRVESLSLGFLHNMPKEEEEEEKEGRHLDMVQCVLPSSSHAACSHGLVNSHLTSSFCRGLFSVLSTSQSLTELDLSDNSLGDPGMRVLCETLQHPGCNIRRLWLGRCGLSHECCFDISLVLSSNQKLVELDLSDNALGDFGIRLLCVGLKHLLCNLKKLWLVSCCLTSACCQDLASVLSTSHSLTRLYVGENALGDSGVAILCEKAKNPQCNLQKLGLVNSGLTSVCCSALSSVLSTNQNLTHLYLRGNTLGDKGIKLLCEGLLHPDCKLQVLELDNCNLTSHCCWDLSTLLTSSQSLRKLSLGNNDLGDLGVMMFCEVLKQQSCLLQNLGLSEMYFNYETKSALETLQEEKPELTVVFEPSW

In general, IC50 refers to the midpoint of a concentration-inhibition curve. `CC(C)c1cc(F)cc(-c2ccccc2)c1NC(=O)NS(=O)(=O)c1cc(CN(C)C)n(C(C)C)n1` [Example 46, 5-((Dimethylamino)methyl)-N-((5-fluoro-3-isopropyl-[1,1′-biphenyl]-2-yl)carbamoyl)-1-isopropyl-1H-pyrazole-3-sulfonamide]: the values for the IC50 at NLRP3 [1] and at NLRP3 [2] were no more than 1000 nM and no more than 5000 nM, respectively.
As for `CC(C)c1cc(F)cc(-c2cccnc2)c1NC(=O)NS(=O)(=O)c1ccn(CCN(C)C)n1` [Example 57, 1-(2-(Dimethylamino)ethyl)-N-((4-fluoro-2-isopropyl-6-(pyridin-3-yl)phenyl)carbamoyl)-1H-pyrazole-3-sulfonamide], the IC50 at NLRP3 [1] and on NLRP3 [2] was no more than 1000 nM each time.
Consider `COc1cc(-c2ccc3c(c2NC(=O)NS(=O)(=O)c2ccn(C4CCC4)n2)CCC3)ccn1` [Example 244, 1-Cyclobutyl-N-((5-(2-methoxypyridin-4-yl)-2,3-dihydro-1H-inden-4-yl)carbamoyl)-1H-pyrazole-3-sulfonamide, sodium salt], for which the IC50 on NLRP3 [1] and on NLRP3 [2] was no more than 500 nM throughout.
As to `CC(C)c1cc(F)cc(-c2ccnc(C#N)c2)c1NC(=O)NS(=O)(=O)c1cnc(N(C)C)cn1` [Example 106, N-((2-(2-Cyanopyridin-4-yl)-4-fluoro-6-isopropylphenyl)carbamoyl)-5-(dimethylamino)pyrazine-2-sulfonamide], the IC50 at NLRP3 [1] is no more than 500 nM; on NLRP3 [2] it was no more than 5000 nM.
The like results for `CC(C)n1ccc(S(=O)(=O)NC(=O)Nc2c(-c3ccnc(OC4CCC4)c3)ccc3c2CCC3)n1` [Example 294, N-((5-(2-Cyclobutoxypyridin-4-yl)-2,3-dihydro-1H-inden-4-yl)carbamoyl)-1-isopropyl-1H-pyrazole-3-sulfonamide, sodium salt] were, in that order, no more than 500 nM and no more than 5000 nM.
The like results for `N#Cc1cc(-c2ccc3c(c2NC(=O)NS(=O)(=O)c2ccn(C4CCOC4)n2)CCC3)ccn1` (stereo not drawn) [Example 181, N-((5-(2-Cyanopyridin-4-yl)-2,3-dihydro-1H-inden-4-yl)carbamoyl)-1-(tetrahydrofuran-3-yl)-1H-pyrazole-3-sulfonamide, sodium salt] were, in that order, no more than 500 nM and no more than 500 nM.
In the same order, the values of `CN(C)CC(C)(C)n1ccc(S(=O)(=O)NC(=O)Nc2c(-c3ccnc(OC4CC4)c3)ccc3c2CCO3)n1` [Example 198, N-((5-(2-Cyclopropoxypyridin-4-yl)-2,3-dihydrobenzofuran-4-yl)carbamoyl)-1-(1-(dimethylamino)-2-methylpropan-2-yl)-1H-pyrazole-3-sulfonamide, sodium salt] are no more than 500 nM and no more than 500 nM.
`COc1cc(-c2ccc3c(c2NC(=O)NS(=O)(=O)c2ccn(C(C)(C)CN4CC(F)(F)C4)n2)CCC3)ccn1` [Example 306, 1-(1-(3,3-Difluoroazetidin-1-yl)-2-methylpropan-2-yl)-N-((5-(2-methoxypyridin-4-yl)-2,3-dihydro-1H-inden-4-yl)carbamoyl)-1H-pyrazole-3-sulfonamide]: the IC50 on NLRP3 [1] and on NLRP3 [2] was no more than 500 nM each time.
As for `Cc1cc(-c2ccc3c(c2NC(=O)NS(=O)(=O)c2ccn(C4CCC4)n2)CCC3)ccn1` [Example 269, 1-Cyclobutyl-N-((5-(2-methylpyridin-4-yl)-2,3-dihydro-1H-inden-4-yl)carbamoyl)-1H-pyrazole-3-sulfonamide, sodium salt], the half-maximal inhibitory concentration (IC50) at NLRP3 [1] and on NLRP3 [2] was no more than 500 nM throughout.
`O=C(Nc1c(-c2ccnc(OC(F)F)c2)ccc2c1CCO2)NS(=O)(=O)c1ccn(C2CC2)n1` [Example 277, 1-Cyclopropyl-N-((5-(2-(difluoromethoxy)pyridin-4-yl)-2,3-dihydrobenzofuran-4-yl)carbamoyl)-1H-pyrazole-3-sulfonamide, sodium salt]: the IC50 at NLRP3 [1] and at NLRP3 [2] was no more than 500 nM each time.
In the case of `[2H]C([2H])([2H])Oc1cc(-c2ccc3c(c2NC(=O)NS(=O)(=O)c2ccn(C4CC4)n2)CCC3)ccn1` [Example 279, 1-Cyclopropyl-N-((5-(2-(methoxy-d3)pyridin-4-yl)-2,3-dihydro-1H-inden-4-yl)carbamoyl)-1H-pyrazole-3-sulfonamide, sodium salt], the IC50 on NLRP3 [1] and on NLRP3 [2] was no more than 500 nM each time.
For the compound `COc1cc(-c2ccc3ccccc3c2NC(=O)NS(=O)(=O)c2ccn(C(C)C)n2)ccn1` [Example 209, 1-Isopropyl-N-((2-(2-methoxypyridin-4-yl)naphthalen-1-yl)carbamoyl)-1H-pyrazole-3-sulfonamide], the IC50 is no more than 500 nM at NLRP3 [1] and no more than 5000 nM at NLRP3 [2].
In the same order, the values of `O=C(Nc1c(-c2ccnc(OC(F)F)c2)ccc2c1CCC2)NS(=O)(=O)c1ccn(C2CC2)n1` [Example 262, 1-Cyclopropyl-N-((5-(2-(difluoromethoxy)pyridin-4-yl)-2,3-dihydro-1H-inden-4-yl)carbamoyl)-1H-pyrazole-3-sulfonamide, sodium salt] are no more than 500 nM and no more than 1000 nM.
In the same order, the values of `COc1cc(-c2ccc3c(c2NC(=O)NS(=O)(=O)c2cc(CN(C)C)n(C(C)C)n2)CCC3)ccn1` [Example 193, 5-((Dimethylamino)methyl)-1-isopropyl-N-((5-(2-methoxypyridin-4-yl)-2,3-dihydro-1H-inden-4-yl)carbamoyl)-1H-pyrazole-3-sulfonamide] are no more than 500 nM and no more than 500 nM.
Consider `CNc1cc(-c2ccc3c(c2NC(=O)NS(=O)(=O)c2ccn(C4CC4)n2)CCC3)ccn1` [Example 253, 1-Cyclopropyl-N-((5-(2-(methylamino)pyridin-4-yl)-2,3-dihydro-1H-inden-4-yl)carbamoyl)-1H-pyrazole-3-sulfonamide], for which the IC50 was no more than 1000 nM on NLRP3 [1] and no more than 5000 nM on NLRP3 [2].
Take `O=C(Nc1c(-c2ccnc(OC3CC3)c2)ccc2c1CCO2)NS(=O)(=O)c1ccn(C2CCC2)n1` [Example 266, 1-Cyclobutyl-N-((5-(2-cyclopropoxypyridin-4-yl)-2,3-dihydrobenzofuran-4-yl)carbamoyl)-1H-pyrazole-3-sulfonamide, sodium salt]: the figures for the 50% inhibitory concentration (IC50) on NLRP3 [1] and on NLRP3 [2] were no more than 500 nM and no more than 1000 nM, respectively.
The like results for `COc1cc(-c2cc(F)cc(C(C)C)c2NC(=O)NS(=O)(=O)c2cn(C(C)C)cn2)ccn1` [Example 53, N-((4-Fluoro-2-isopropyl-6-(2-methoxypyridin-4-yl)phenyl)carbamoyl)-1-isopropyl-1H-imidazole-4-sulfonamide] were, in that order, no more than 500 nM and no more than 5000 nM.
As for `CC(C)n1ccc(S(=O)(=O)NC(=O)Nc2c(-c3ccnc(OC4CCN(C)CC4)c3)ccc3c2CCC3)n1` [Example 287, 1-Isopropyl-N-((5-(2-((1-methylpiperidin-4-yl)oxy)pyridin-4-yl)-2,3-dihydro-1H-inden-4-yl)carbamoyl)-1H-pyrazole-3-sulfonamide, sodium salt], the IC50 on NLRP3 [1] and at NLRP3 [2] was no more than 500 nM each time.
On to `CC(C)c1cc(F)cc(-c2cccnc2)c1NC(=O)NS(=O)(=O)c1cc(CN(C)C)n(C(C)C)n1` [Example 41, 5-((Dimethylamino)methyl)-N-((4-fluoro-2-iso-propyl-6-(pyridin-3-yl)phenyl)carbamoyl)-1-iso-propyl-1H-pyrazole-3-sulfonamide], for which the IC50 at NLRP3 [1] is no more than 500 nM; on NLRP3 [2], no more than 1000 nM.
`COc1cc(-c2ccc3c(c2NC(=O)NS(=O)(=O)c2ccn(C(C)(C)C(=O)N(C)C)n2)CCC3)ccn1` [Example 189, 2-(3-(N-((5-(2-Methoxypyridin-4-yl)-2,3-dihydro-1H-inden-4-yl)carbamoyl)sulfamoyl)-1H-pyrazol-1-yl)-N,N,2-trimethylpropanamide]: the IC50 on NLRP3 [1] and at NLRP3 [2] was no more than 500 nM in each case.
Consider `O=C(Nc1c(-c2ccncc2)ccc2c1CCC2)NS(=O)(=O)c1ccn(C2CC2)n1` [Example 303, 1-Cyclopropyl-N-((5-(pyridin-4-yl)-2,3-dihydro-1H-inden-4-yl)carbamoyl)-1H-pyrazole-3-sulfonamide], for which the IC50 on NLRP3 [1] and on NLRP3 [2] was no more than 500 nM each time.
On to `COc1cc(-c2ccc3c(c2NC(=O)NS(=O)(=O)c2ccc(C(C)C)c(CN(C)C)c2)CCC3)ccn1` [Example 282, 3-((Dimethylamino)methyl)-4-isopropyl-N-((5-(2-methoxypyridin-4-yl)-2,3-dihydro-1H-inden-4-yl)carbamoyl)benzenesulfonamide, sodium salt], for which the IC50 at NLRP3 [1] and at NLRP3 [2] was no more than 500 nM in each case.
On to `COc1cc(-c2ccc3c(c2NC(=O)NS(=O)(=O)c2ccn(C4(CN(C)C)CCC4)n2)CCC3)ccn1` [Example 247, 1-(1-((Dimethylamino)methyl)cyclobutyl)-N-((5-(2-methoxypyridin-4-yl)-2,3-dihydro-1H-inden-4-yl)carbamoyl)-1H-pyrazole-3-sulfonamide, sodium salt], for which the IC50 on NLRP3 [1] and on NLRP3 [2] was no more than 500 nM each time.
As for `CC(C)(CN1CCC1)n1ccc(S(=O)(=O)NC(=O)Nc2c(-c3ccnc(OC4CC4)c3)ccc3c2CCC3)n1` [Example 274, 1-(1-(Azetidin-1-yl)-2-methylpropan-2-yl)-N-((5-(2-cyclopropoxypyridin-4-yl)-2,3-dihydro-1H-inden-4-yl)carbamoyl)-1H-pyrazole-3-sulfonamide, sodium salt], the half-maximal inhibitory concentration (IC50) on NLRP3 [1] and on NLRP3 [2] was no more than 500 nM each time.
